Tested on: cerebral organoids
Experiment: RT-qPCR of marker gene expression after DAPT treatment
Assay type: cell-based, human
Conditions: for expression of Hes1: single-cell DAPT method (step (iv))
Procedure: Total RNA was obtained with an RNeasyMicroKit (QIAGEN), and reverse transcription reaction was performed with a SuperScript III First-Strand Synthesis System ([…]) in accordance with a protocol from the provider. Quantitative PCR was carried out by using TaqMan (TM) Gene Expression Master Mix (Thermo Fisher Scientific Inc.) or SYBR Green Master Mix (Thermo Fisher Scientific Inc.) in accordance with instruction from the manufacturer. The expression levels of genes were normalized to that for GAPDH by using the […] method.
To analyze the influence of the DAPT treatment period on differentiation, cerebral organoids in week 7 of induction of differentiation were treated with 10 μM DAPT for 3 to 7 days according to a method or scheme shown in FIG. 16(A) (organoid DAPT method), and the variation of gene expression was analyzed by RT-qPCR; the results are shown in FIG. 16(B). The ordinate represents relative expression levels to GAPDH.
Furthermore, organoids on Day 25, Day 32, Day 39, and Day 72 (the periods of induction of differentiation: about 4 weeks, 5 weeks, 6 weeks, and 10 weeks, respectively) were cultured in the presence or absence of DAPT for 3 days, and the cerebral organoids on Day 28 (4 wk), Day 35 (5 wk), Day 42 (6 wk), and Day 75 (10 wk) were analyzed for the expression levels of marker genes by RT-qPCR; the results of analysis of the relative expression levels of the markers are shown in FIG. 18. […] For the organoids in week 10, no reduction in expression of Ki67 was found, and no influence was found in expression of Satb2, too.
In the “single-cell DAPT method (DAPT treatment is performed in step (iv))” in FIG. 24(B), cerebral organoids were screened on day 38 after the initiation of induction of differentiation and dispersed into single cells by the method described for step (iii) in Example 4, and the cells were then suspended in a culture medium obtained by adding 10 ng/mL GDNF, 20 ng/mL BDNF, 200 μM ascorbic acid, 400 μM dibutyryl-cAMP, and 30 μM Y-27632 to the culture medium in step (2b) with addition of DAPT at a concentration of 0 μM, 0.1 μM, 1 μM, or 10 μM. Subsequently, the cells were regathered by the method described for step (iv) in Example 4 in the presence of DAPT, and cultured for 1 day, 2 days, or 3 days. Thereafter, the culture medium was switched to a culture medium obtained by adding 10 ng/mL GDNF, 20 ng/mL BDNF, 200 μM ascorbic acid, and 400 μM dibutyryl-cAMP to the culture medium in step (2b), and culture was continued until day 10 after the initiation of reaggregation. The cells on day 3, day 4, or day 10 after the initiation of reaggregation were analyzed by RT-qPCR, and the cells on day 10 were analyzed by flow cytometry; the results are shown in FIGS. 25 to 27.

[1] = cerebral organoids in week 7, 10 μM DAPT for 3 to 7 days (organoid DAPT method)
[2] = organoids in week 4 to week 6, DAPT for 3 days
[3] = organoids in week 10, DAPT for 3 days

SMILES: C[C@H](NC(=O)Cc1cc(F)cc(F)c1)C(=O)N[C@H](C(=O)OC(C)(C)C)c1ccccc1 [DAPT, N-[N-(3,5-difluorophenacetyl)-L-alanyl]-S-phenylglycine t-butyl ester]
- expression of Ctip2 [1]: enhanced as the DAPT treatment period was prolonged
- expressions of Pax6, Sox2, and Ki67 [1]: declined as the DAPT treatment period was extended
- expression of Ctip2 [2]: enhanced expression
- expression of Pax6 and Ki67 [2]: reduced expression
- expression of Ki67 [3]: no reduction
- expression of Satb2 [3]: no influence
- expression of Hes1 (10 μM DAPT, 1-day and 2-day treatment, as culture proceeded): upregulated again
- expression of Hes1 (10 μM DAPT, 3-day treatment): suppressed over the 10 days
- expression of Hes1 (DAPT 0.1 to 1 μM, 3 days): not sufficiently suppressed

From patent publication US20240279602A1, “METHOD FOR PRODUCING CEREBRAL CORTICAL CELL PREPARATION DERIVED FROM HUMAN PLURIPOTENT STEM CELLS” (Kyoto University, priority 2021, published 2024)
